According to ChEMBL document CHEMBL1201862, “PubChem BioAssay data set” (2004):
Active and inactive are the calls of the source.

Key:
[1] = luciferase reporter signal suppression in cells – H4 neuroglioma cells, luminescence, dose response (AID 1990); type: functional, cell-based
[2] = Luminescence Cell-Based Dose Retest to Confirm Inhibitors of Cancer Stem Cells. [Related pubchem assays (depositor defined):AID2717, AID2721]; type: functional; settings: Homo sapiens
[3] = fluconazole-exposed Candida albicans growth modulators – fluorescence, retest, confirmation (AID 2467); type: functional, cell-based
[4] = Counterscreen for AddAB inhibitors: absorbance-based bacterial cell-based high throughput dose response assay for inhibitors of bacterial viability. [Related pubchem assays (depositor defined):AID435030, AID449728, AID449731, AID488942, AID488955, AID488956]; type: functional
[5] = alpha-synuclein stem-loop luciferase translation blockers – H4 neuroglioma cells, luminescence, confirmation (AID 1988); type: functional, cell-based
[6] = molecular target: T1, Exodeoxyribonuclease V (Escherichia coli (strain K12), UniProt P04993+P07648+P08394); assay: RecBCD inhibition via phage-restricted bacterial growth – absorbance, V66 E. coli, mutant T4 phage, counter-screen for AddAB inhibitor project, dose response (AID 492957); type: functional, cell-based, Escherichia coli str. K-12 substr. MG1655
T1 sequence (P04993 whole entry): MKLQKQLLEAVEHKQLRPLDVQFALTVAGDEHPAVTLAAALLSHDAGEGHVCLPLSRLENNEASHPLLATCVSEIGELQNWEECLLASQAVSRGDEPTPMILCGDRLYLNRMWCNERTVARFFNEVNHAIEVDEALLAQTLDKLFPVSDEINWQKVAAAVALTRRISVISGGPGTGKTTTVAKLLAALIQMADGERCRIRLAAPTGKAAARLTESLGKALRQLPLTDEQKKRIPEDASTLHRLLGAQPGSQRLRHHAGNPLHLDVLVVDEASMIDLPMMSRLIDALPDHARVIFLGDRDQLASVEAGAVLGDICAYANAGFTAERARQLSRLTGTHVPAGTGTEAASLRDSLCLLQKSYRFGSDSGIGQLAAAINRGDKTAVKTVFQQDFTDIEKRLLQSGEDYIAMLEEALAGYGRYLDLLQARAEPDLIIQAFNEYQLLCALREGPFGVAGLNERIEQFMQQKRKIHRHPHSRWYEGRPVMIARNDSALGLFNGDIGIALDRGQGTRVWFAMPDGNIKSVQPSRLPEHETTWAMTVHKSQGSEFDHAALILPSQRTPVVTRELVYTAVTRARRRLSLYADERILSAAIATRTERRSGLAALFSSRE
T1 sequence (P07648 whole entry): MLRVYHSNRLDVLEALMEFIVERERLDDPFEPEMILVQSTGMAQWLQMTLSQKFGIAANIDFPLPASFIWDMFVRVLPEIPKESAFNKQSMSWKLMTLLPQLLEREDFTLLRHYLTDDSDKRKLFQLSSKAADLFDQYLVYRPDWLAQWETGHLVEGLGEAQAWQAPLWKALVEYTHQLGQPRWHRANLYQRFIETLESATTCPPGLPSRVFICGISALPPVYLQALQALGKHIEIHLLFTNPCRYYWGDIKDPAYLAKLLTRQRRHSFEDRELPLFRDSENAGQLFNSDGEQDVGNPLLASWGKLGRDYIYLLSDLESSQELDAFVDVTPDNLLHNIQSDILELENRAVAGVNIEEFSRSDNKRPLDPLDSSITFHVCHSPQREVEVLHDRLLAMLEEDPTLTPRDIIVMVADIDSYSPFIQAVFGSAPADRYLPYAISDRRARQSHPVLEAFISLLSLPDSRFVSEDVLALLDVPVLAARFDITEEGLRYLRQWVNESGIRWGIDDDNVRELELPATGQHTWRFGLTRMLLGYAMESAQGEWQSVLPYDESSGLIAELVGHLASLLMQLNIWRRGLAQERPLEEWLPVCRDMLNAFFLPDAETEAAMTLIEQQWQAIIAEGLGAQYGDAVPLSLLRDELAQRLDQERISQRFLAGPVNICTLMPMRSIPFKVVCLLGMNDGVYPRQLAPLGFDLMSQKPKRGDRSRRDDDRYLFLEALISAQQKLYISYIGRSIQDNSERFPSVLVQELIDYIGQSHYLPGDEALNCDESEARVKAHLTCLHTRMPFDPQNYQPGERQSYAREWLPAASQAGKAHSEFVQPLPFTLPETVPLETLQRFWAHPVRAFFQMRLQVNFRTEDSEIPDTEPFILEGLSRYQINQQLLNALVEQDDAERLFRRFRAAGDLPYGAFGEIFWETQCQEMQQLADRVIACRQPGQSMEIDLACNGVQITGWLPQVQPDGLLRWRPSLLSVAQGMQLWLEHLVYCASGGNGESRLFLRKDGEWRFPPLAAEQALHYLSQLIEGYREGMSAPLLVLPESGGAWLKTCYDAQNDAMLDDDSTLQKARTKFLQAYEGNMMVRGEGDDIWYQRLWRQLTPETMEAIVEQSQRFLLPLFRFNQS
T1 sequence (P08394 whole entry): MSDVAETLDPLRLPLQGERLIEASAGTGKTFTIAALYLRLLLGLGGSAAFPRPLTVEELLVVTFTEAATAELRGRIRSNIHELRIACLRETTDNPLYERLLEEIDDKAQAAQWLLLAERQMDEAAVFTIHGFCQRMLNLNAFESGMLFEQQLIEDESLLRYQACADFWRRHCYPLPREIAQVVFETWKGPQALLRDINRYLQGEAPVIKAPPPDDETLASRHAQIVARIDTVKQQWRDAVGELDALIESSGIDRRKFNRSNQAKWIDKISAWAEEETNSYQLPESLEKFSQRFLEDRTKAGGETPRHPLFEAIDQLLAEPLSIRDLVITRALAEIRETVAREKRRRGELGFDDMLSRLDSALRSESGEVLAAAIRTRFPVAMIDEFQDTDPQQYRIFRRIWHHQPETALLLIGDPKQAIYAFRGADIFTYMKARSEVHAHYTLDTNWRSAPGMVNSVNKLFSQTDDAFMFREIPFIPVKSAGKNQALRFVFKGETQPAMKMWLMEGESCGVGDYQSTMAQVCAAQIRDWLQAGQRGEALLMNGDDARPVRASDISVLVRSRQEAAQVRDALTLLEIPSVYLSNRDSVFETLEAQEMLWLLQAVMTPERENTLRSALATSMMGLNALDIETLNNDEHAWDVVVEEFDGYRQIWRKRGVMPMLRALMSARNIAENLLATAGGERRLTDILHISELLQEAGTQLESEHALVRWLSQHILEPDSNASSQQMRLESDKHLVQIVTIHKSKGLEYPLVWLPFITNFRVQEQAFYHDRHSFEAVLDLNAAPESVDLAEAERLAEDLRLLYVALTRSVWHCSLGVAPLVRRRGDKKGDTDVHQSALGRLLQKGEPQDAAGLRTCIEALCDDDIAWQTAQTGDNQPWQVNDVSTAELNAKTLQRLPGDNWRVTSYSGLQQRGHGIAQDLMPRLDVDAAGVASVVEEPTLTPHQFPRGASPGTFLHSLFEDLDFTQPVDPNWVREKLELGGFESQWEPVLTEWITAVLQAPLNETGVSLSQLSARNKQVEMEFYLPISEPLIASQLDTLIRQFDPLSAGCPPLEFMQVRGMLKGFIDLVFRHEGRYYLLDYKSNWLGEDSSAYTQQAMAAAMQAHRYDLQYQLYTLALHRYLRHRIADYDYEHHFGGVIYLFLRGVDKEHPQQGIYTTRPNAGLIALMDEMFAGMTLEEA

[7] = NIH-3T3 fibroblast cytotoxicity, dose response, cytotoxicity control, cell-based, fluorescence, Alamar Blue, secondary assay (AID 2327); type: functional;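 further: NIH-3T3 mouse fibroblasts cultured with fluconazole at 8 µg/mL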
[8] = Luminescence Cell-Based Dose Response HTS to Identify Inhibitors of 5'UTR Stem-Loop Driven Prion Protein mRNA Translation in H4 Neuroglioblastoma Cells. [Related pubchem assays: 1827 (Project Summary), 1813 (Primary HTS)]; type: functional
[9] = test system: INS1; assay: INS-1E survival protection against cytokine death – cell-based, luminescence, retest, dose response (AID 449756); type: functional; settings: Rattus norvegicus;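 further: cell death triggered by IL-1 beta plus TNF-alpha plus IFN-gamma mixture; protective hits raise ATP signal compared with cytokine alone wells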
[10] = HGIII-sPLA2 enzyme inhibition potency – biochemical, QFRET, IC50, dose response (AID 743457);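 further: green fluorescence rise as the enzyme cleaves BODIPY PC-A2 in liposomes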
[11] = EF1alpha-driven Renilla reporter with control 3'UTR suppression – Clone20-Shn3RL cells, dual-Glo, cherry-pick, set 2, counter-screen for Shn3 3'UTR targeting project, dose response (AID 720724); type: functional, cell-based; settings: Dual-Go Shn3RL
[12] = loss of viability in HepG2 cells – cell-based, CellTiter-Glo, cherry-picked, cytotoxicity control for Shn3 inhibitor project, dose response (AID 624134); type: functional
[13] = non-specific 3'UTR reporter inhibition in Clone20-Shn3RL – cell-based, Renilla luciferase, cherry-picked, counter-screen for Shn3 inhibitor project, dose response (AID 624133); type: functional
[14] = molecular target: Protein Wnt-3a (Mus musculus, UniProt P27467); assay: antagonism of Wnt3a pathway luciferase reporter – Wnt-LIGHT cells, luminescence, selectivity assay for Gli-SUFU antagonist project, dose response (AID 651570); type: functional; settings: read-out: IC50_Mean;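 further: Wnt-LIGHT reporter cells stimulated with conditioned medium from Wnt3a-producing cells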
Chain of Protein Wnt-3a (P27467 whole entry): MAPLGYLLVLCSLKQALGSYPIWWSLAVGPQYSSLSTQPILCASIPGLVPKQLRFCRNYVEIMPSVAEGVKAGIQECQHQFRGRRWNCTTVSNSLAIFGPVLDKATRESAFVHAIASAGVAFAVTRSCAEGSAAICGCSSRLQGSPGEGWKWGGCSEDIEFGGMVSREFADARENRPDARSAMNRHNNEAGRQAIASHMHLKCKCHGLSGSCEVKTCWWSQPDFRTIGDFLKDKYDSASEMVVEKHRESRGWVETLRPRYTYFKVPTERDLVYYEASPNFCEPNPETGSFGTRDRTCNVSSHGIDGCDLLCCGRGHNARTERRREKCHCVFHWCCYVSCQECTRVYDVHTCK

[15] = reduction of Shn3 3'UTR-driven luciferase in osteoblasts – cell-based, Clone20 osteoblasts, firefly luciferase, cherry-picked, dose response (AID 624132); type: functional;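 further: firefly luciferase luminescence from reporter carrying the Shn3 3'UTR in osteoblasts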
[16] = Shn3 3'UTR reporter signal decrease – cell-based, Clone20 osteoblasts, firefly luciferase, cherry-pick, set 2, Schnurri-3 inhibitor project, dose response (AID 720490); type: functional;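 further: actives lower the luminescence signal as inhibitors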
[17] = test system: Cryptococcus neoformans; assay: PubChem AID 686997; type: functional, organism-based
[18] = ATP-based viability loss in HEK293T cells – cell-based, CellTiter-Glo luminescence, cherry-picked samples, set 4, cytotoxicity control, dose response (AID 743441); type: functional; settings: HEK293
[19] = molecular target: Nonstructural protein 1 (Influenza A virus, UniProt Q194T2); type: functional, Influenza A virus (A/California/07/2009(H1N1))
Chain of Nonstructural protein 1 (Q194T2 whole entry): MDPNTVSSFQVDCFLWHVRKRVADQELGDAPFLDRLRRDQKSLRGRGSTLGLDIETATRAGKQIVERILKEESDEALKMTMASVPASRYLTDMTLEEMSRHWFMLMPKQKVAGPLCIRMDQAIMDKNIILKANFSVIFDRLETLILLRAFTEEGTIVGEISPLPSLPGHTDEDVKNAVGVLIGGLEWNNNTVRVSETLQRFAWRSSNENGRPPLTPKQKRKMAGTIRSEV

[20] = molecular target: Matrix metalloproteinase-14 (Homo sapiens, UniProt P50281); assay: Dose Response confirmation of uHTS hits for a small molecule inhibitors of MT1-MMP activation in a fluorescence assay set 1.; type: functional
[21] = molecular target: DNA repair protein RAD52 homolog (Homo sapiens, UniProt P43351); type: functional, biochemical
Chain of DNA repair protein RAD52 homolog (P43351 whole entry): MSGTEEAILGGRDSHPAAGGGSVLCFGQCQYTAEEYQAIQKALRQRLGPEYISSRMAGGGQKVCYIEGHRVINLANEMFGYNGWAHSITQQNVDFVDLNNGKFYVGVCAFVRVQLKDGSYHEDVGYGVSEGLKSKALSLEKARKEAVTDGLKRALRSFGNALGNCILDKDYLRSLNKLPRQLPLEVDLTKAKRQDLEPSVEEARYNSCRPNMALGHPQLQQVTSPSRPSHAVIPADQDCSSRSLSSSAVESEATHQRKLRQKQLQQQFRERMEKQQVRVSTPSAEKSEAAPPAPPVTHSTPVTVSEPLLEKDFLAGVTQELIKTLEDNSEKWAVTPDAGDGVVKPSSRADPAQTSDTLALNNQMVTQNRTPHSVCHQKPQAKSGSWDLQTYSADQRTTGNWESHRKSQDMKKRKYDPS

[22] = TNFa-induced NF-kB reporter signal decrease – HEK293 LMP1 reporter cells, dry powder, set 2, selectivity assay for EBV LMP1 NF-kB inhibitor project, dose response (AID 624369); type: functional
[23] = inhibitors of EBV LMP1 NF-kappaB signaling – cell-based, luciferase reporter, luminescence, dry powder, set 2, dose response (AID 624376); type: functional
[24] = MITF Orthogonal Assay: SK-MEL-5 CTG Assay Measured in Cell-Based System Using Plate Reader - 2084-02_Inhibitor_Dose_DryPowder_Activity_Set7.; type: functional
[25] = MITF: Counter assay: A375 proliferation Measured in Cell-Based System Using Plate Reader - 2084-03_Inhibitor_Dose_DryPowder_Activity_Set8.; type: functional; settings: A-375
[26] = HEK293T viability loss – cell-based, ATP luminescence, dry powder, Set6, cytotoxicity control, dose response (AID 743142); type: functional; settings: HEK293

## Cc1onc(-c2c(Cl)cccc2Cl)c1C(=O)NN=C(N)COc1ccc(Cl)cc1
[1]
  EC50: > 120 µM (not active)
[2]
  AC50: 3.07 µM (active)
[3]
  EC50: 3.09 µM (active)
[4]
  IC50: > 119 µM (inactive)
[5]
  EC50: > 120 µM (not active)
[6]
  IC50: > 119 µM (inactive)
[7]
  EC50: > 150 µM (inactive)
[8]
  EC50: 12 µM (active)
[9]
  AC50: 3.71 µM (active)
[10]
  IC50: > 122 µM (inactive)

## CC(Sc1nc2ccccc2c(=O)n1C)C(=O)N(C)C1CCCCC1 (stereo unspecified)
[11]
  AC50: 49.9 µM (active)
[12]
  AC50: 38.2 µM (active)
[13]
  AC50: 13.7 µM (active)
[14]
  IC50: 1.92 µM (active)
[15]
  AC50: 2.27 µM (active)
[16]
  AC50: 2.03 µM (active)

## Cc1cc(Cl)ccc1N=C(S)NCc1ccc(F)cc1
[17]
  AC50: > 70 µM (inactive)

## Cc1cc(C)c(OCCNC(=O)c2ccccc2Sc2ccccc2C#N)c(C)c1
[18]
  AC50: > 52 µM (inactive)

## CCCN1C(=O)/C(=C2/C=Cc3ccccc3N2CC)SC1=S
[19]
  IC50: 5.77 µM (active)
[20]
  IC50: 29.7 µM (inactive)

## Cc1cc(N2CCNC[C@@H]2C)ccc1N1CC[C@@H](O)C1
[21]
  AC50: 4.37 µM (active)

## C/C=C/c1cccc(-c2nc(C(=O)Nc3nccs3)cc3c2[C@@H](CCO)N(C(=O)NC(C)C)C3)c1
[22]
  AbsAC35: 58.58 µM
[23]
  AbsAC35: 118.9 µM

## Cc1ccc(NC2=CC(=O)c3ccccc3C2=O)cc1C
[24]
  AC50: 0.904 µM (active)
[25]
  AC50: > 70 µM (inactive)

## O=C(Cc1ccc(Cl)cc1)NCCC(=O)N[C@@H]1CCCc2ccccc21
[26]
  AC50: 5.41 µM (active)
